Data published in US9982005B2, “Macrolides and methods of their preparation and use” (President and Fellows of Harvard College, priority 2013, dated 2018).
Values after ≈ are worked out from the molar mass of the structure shown. Like-named read-outs stand apart in the source and are kept apart here.

What was measured:
Assay type in all cases: cell-based
[1] = test system: SA101 S. aureus ATCC29213; assay: broth dilution MIC, S. aureus SA101; details: Staphylococcus aureus, ATCC29213, SA101 S. aureus ATCC29213; read-out: MIC
Text: (§1) We have collected MIC data for a total of 50 novel macrolides that this platform has produced against over 21 unique strains of B. subtilis, E. coli, S. aureus, S. pneumoniae, and H. influenzae, including several multidrug-resistant strains, with a special focus on macrolide resistant mechanisms (vide supra). Azithromycin was included as a control macrolide. CLSI standard procedures for broth dilution MIC determination were used. […] These genotypes can be constitutive or inducible. The finding that C4-epi (unnatural) isomers of the “azaketolide” macrolide class have enhanced activities relative to C4 natural isomers is very exciting.

[2] = test system: BS1723 B. subtilis BS168 WT wild type; assay: broth dilution MIC, B. subtilis BS1723; details: Bacillus subtilis, BS1723 B. subtilis BS168 WT wild type; read-out: MIC
Text: as §1

[3] = test system: EC878 E. coli tolC; assay: broth dilution MIC, E. coli EC878; details: Escherichia coli
Text: as §1

[4] = test system: EC882 E. coli imp; assay: broth dilution MIC, E. coli EC882; details: Escherichia coli
Text: as §1

[5] = test system: EC107 E. coli ATCC25922; assay: broth dilution MIC, E. coli EC107; details: Escherichia coli, read-out: MIC
Text: as §1

[6] = test system: BS1725 B. subtilis ermC; assay: broth dilution MIC, B. subtilis BS1725; details: Bacillus subtilis
Text: as §1

[7] = test system: S. pneumoniae strains; assay: MIC against S. pneumoniae strains (Tables M7, M8); details: Streptococcus pneumoniae
Text: CLSI standard procedures for broth dilution MIC determination were used. […] These genotypes can be constitutive or inducible.

[8] = test system: A. baumannii strains; assay: MIC against A. baumannii strains (Table M8); details: Acinetobacter baumannii, BAA747, A. baumannii BAA747-1
[9] = test system: S. aureus strains; assay: MIC against S. aureus strains (Table M7); details: Staphylococcus aureus
Text: as §1

[10] = test system: E. coli strains; assay: MIC against E. coli strains (Table M7); details: Escherichia coli, ATCC25922, E. coli ATCC 25922
Text: as §1

[11] = test system: K. pneumoniae strains; assay: MIC against K. pneumoniae strains (Table M8); details: Klebsiella pneumoniae, K. pneumoniae 10031
[12] = test system: E. faecalis strains; assay: MIC against E. faecalis strains (Table M8); details: Enterococcus faecalis, E. faecalis 29212
[13] = test system: H. influenzae strains; assay: MIC against H. influenzae strains (Table M8); details: Haemophilus influenzae
Text: as §1

Q: What does the source list for `CC[C@H]1OC(=O)[C@](C)(F)C(=O)C[C@@H](O[C@@H]2OC(C)CC(N(C)C)C2O)[C@](C)(OC)C[C@@H](C)CN[C@H](C)[C@H]2N(CCCCn3cc(-c4cccc(N)c4)nn3)C(=O)O[C@]12C` (stereo partly drawn) [FSM-10661]?
A: MIC [1]: > 32 µg/mL; MIC [2]: > 32 µg/mL; MIC [3]: 16 µg/mL (≈ 19.2 µM); MIC [4]: 2 µg/mL (≈ 2.4 µM); MIC [5]: > 32 µg/mL; MIC ([6]; BS1725 B. subtilis ermC (+ery)): > 32 µg/mL; MIC ([6]; BS1725 B. subtilis ermC (−ery)): > 32 µg/mL

Q: How did the MIC [1] turn out when `CC[C@H]1OC(=O)[C@](C)(F)C(=O)C[C@@H](O[C@@H]2OC(C)CC(N(C)C)C2O)[C@](C)(OC)C[C@@H](C)CN[C@H](C)[C@H]2N(CCCCn3cc(-c4ccccn4)nn3)C(=O)O[C@]12C` (stereo partly drawn) [FSM-10662] was run?
A: Its MIC is over 32 µg/mL.

Q: And the MIC [2]?
A: The MIC was over 32 µg/mL.

Q: What about the MIC [3] of the same compound?
A: Its MIC is 16 µg/mL (≈ 19.6 µM).

Q: And the MIC [4]?
A: Its MIC is 4 µg/mL (≈ 4.89 µM).

Q: And the MIC [5]?
A: The MIC was over 32 µg/mL.

Q: What about the MIC ([6]; BS1725 B. subtilis ermC (+ery)) of the same compound?
A: The MIC was over 32 µg/mL.

Q: What about the MIC ([6]; BS1725 B. subtilis ermC (−ery)) of the same compound?
A: The MIC was over 32 µg/mL.

Q: How did the MIC [1] turn out when `CC[C@H]1OC(=O)[C@](C)(F)C(=O)C[C@@H](O[C@@H]2OC(C)CC(N(C)C)C2O)[C@](C)(OC)C[C@@H](C)CN[C@H](C)[C@H]2N(CCCCn3cc(-c4nccs4)nn3)C(=O)O[C@]12C` (stereo partly drawn) [FSM-10666] was run?
A: The MIC was over 32 µg/mL.

Q: What about the MIC [2] of the same compound?
A: The MIC was over 32 µg/mL.

Q: And the MIC [3]?
A: Its MIC is 16 µg/mL (≈ 19.4 µM).

Q: And the MIC [4]?
A: Its MIC is 4 µg/mL (≈ 4.85 µM).

Q: What about the MIC [5] of the same compound?
A: The MIC was over 32 µg/mL.

Q: And the MIC ([6]; BS1725 B. subtilis ermC (+ery))?
A: Its MIC is over 32 µg/mL.

Q: What about the MIC ([6]; BS1725 B. subtilis ermC (−ery)) of the same compound?
A: The MIC was over 32 µg/mL.

Q: What does the source list for `CC[C@H]1OC(=O)[C@](C)(F)C(=O)C[C@@H](O[C@@H]2OC(C)CC(N(C)C)C2O)[C@](C)(OC)C[C@@H](C)CN[C@H](C)[C@H]2N(CCCCn3cc(-c4cccnn4)nn3)C(=O)O[C@]12C` (stereo partly drawn) [FSM-10667]?
A: MIC [1]: > 32 µg/mL; MIC [2]: > 32 µg/mL; MIC [3]: 16 µg/mL (≈ 19.5 µM); MIC [4]: 4 µg/mL (≈ 4.88 µM); MIC [5]: > 32 µg/mL; MIC ([6]; BS1725 B. subtilis ermC (+ery)): > 32 µg/mL; MIC ([6]; BS1725 B. subtilis ermC (−ery)): > 32 µg/mL

Q: With `CC[C@H]1OC(=O)[C@](C)(F)C(=O)C[C@@H](O[C@@H]2OC(C)CC(N(C)C)C2O)[C@](C)(OC)C[C@@H](C)CN[C@H](C)[C@H]2N(CCCCn3cc(-c4nc5ccccc5s4)nn3)C(=O)O[C@]12C` (stereo partly drawn) [FSM-10671] as the compound, how does the MIC [1] read?
A: Its MIC is over 32 µg/mL.

Q: What about the MIC [2] of the same compound?
A: The MIC was over 32 µg/mL.

Q: And the MIC [3]?
A: Its MIC is 32 µg/mL (≈ 36.6 µM).

Q: What about the MIC [4] of the same compound?
A: The MIC was 8 µg/mL (≈ 9.15 µM).

Q: What about the MIC [5] of the same compound?
A: Its MIC is over 32 µg/mL.

Q: What about the MIC ([6]; BS1725 B. subtilis ermC (+ery)) of the same compound?
A: The MIC was over 32 µg/mL.

Q: And the MIC ([6]; BS1725 B. subtilis ermC (−ery))?
A: The MIC was over 32 µg/mL.

Q: For `CC[C@H]1OC(=O)[C@H](CC(=O)OC(C)(C)C)C(=O)[C@H](C)[C@@H](O[C@@H]2OC(C)CC(N(C)C)C2O)[C@](C)(OC)C[C@@H](C)CN[C@H](C)[C@H]2N(CCCCn3cc(-c4cccc(N)c4)nn3)C(=O)O[C@]12C` (stereo partly drawn) [FSM-56178], which MIC ([7]; S. pneumoniae 160, read-out: MIC S. pneumonae (160)) is on record?
A: The MIC was 8 µg/mL (≈ 8.62 µM).

Q: What about the MIC ([7]; S. pneumoniae 1509, read-out: MIC S. pneumoniae (1509)) of the same compound?
A: Its MIC is over 32 µg/mL.

Q: And the MIC ([7]; S. pneumoniae 1533, read-out: MIC S. pneumoniae (1533))?
A: Its MIC is over 32 µg/mL.

Q: And the MIC ([7]; S. pneumoniae 1537, read-out: MIC S. pneumoniae (1537))?
A: The MIC was over 32 µg/mL.

Q: What about the MIC ([7]; S. pneumoniae 49619, read-out: MIC S. pneumoniae (49619)) of the same compound?
A: The MIC was over 32 µg/mL.

Q: What about the MIC [8] of the same compound?
A: The MIC was over 32 µg/mL.

Q: What about the MIC ([9]; ATCC29213, S. aureus ATCC 29213, read-out: MIC S. aureus (ATCC 29213)) of the same compound?
A: Its MIC is over 32 µg/mL.

Q: And the MIC ([9]; S. aureus 183, read-out: MIC S. aureus (183))?
A: The MIC was over 32 µg/mL.

Q: What about the MIC ([9]; S. aureus 506, read-out: MIC S. aureus (506)) of the same compound?
A: The MIC was over 32 µg/mL.

Q: What about the MIC ([9]; S. aureus 1708, read-out: MIC S. aureus (1708)) of the same compound?
A: Its MIC is over 32 µg/mL.

Q: And the MIC ([9]; USA300, S. aureus USA300, read-out: MIC S. aureus (USA300))?
A: Its MIC is over 32 µg/mL.

Q: And the MIC [10]?
A: Its MIC is over 32 µg/mL.

Q: And the MIC [11]?
A: The MIC was over 32 µg/mL.

Q: What about the MIC [12] of the same compound?
A: The MIC was over 32 µg/mL.

Q: What about the MIC ([13]; H. influenzae 49247, read-out: MIC H. influenzae (49247)) of the same compound?
A: The MIC was over 32 µg/mL.

Q: What about the MIC ([13]; H. influenzae 49766, read-out: MIC H. influenzae (49766)) of the same compound?
A: Its MIC is over 32 µg/mL.
